Laboratory results taken from patent US6271205A, “Cancer treatment by expression of differentiation factor receptor” (University of Massachusetts Medical Center, priority 1997, dated 2001).

System: C6 rat glioma cells
Test: Induction of cell cycle arrest in C6 cells with aphidicolin
Assay type: cell-based
Conditions: 0.3 μM aphidicolin, 5 days
Description: SH-SY5Y cells were grown at 37° C. in RPMI 1640 medium (GIBCO BRL, Gaithersburg, Md.) supplemented with 10% fetal bovine serum (Sigma Chemicals, St. Louis, Mo.) and 100 μg/ml of gentamicin. For differentiation studies, cells were plated (1.5×10^5 to 5×10^5 cells/dish) in 35-mm Primaria dishes (Falcon, Franklin Lakes, N.J.). One hundred ng/ml NGF (2.5 S; Bioproducts for Science, Indianapolis, Ind.) and/or 0.3 μM aphidicolin (Sigma Chemicals, St. Louis, Mo.) were added every 2-3 days. Cell proliferation was assessed by BrdU labeling, as described by LoPresti et al. (Cell Growth Diff. (1992) 3:627-635).
0.3 μM aphidicolin (Sigma, St. Louis Mo.) was added to logarithmically growing C6 rat glioma cells (ATCC, CCL 107, Rockville, Md.) in MEM medium supplemented with 10% fetal bovine serum (Sigma, St. Louis, Mo.). After 5 days incubation, growth arrested cells were removed with trypsin and 2.0×10^4 cells were seeded on polyornithine coated coverslips (polyornithine hydrobromide, Sigma) containing aphidicolin supplemented media for another five days in 24-well plates. Coverslips were then fixed in either methanol (10 minutes at -20° C.) or 4% paraformaldehyde (20 minutes at room temperature) for immunohistochemical analysis.
Less than 5% of cells were stained to any extent with antibodies to GFAP, medium and heavy chain neurofilament (SMI-312) or MAP-2. […]

## C[C@@]1(CO)[C@H](O)CC[C@@]2(C)[C@H]1CC[C@H]1C[C@@H]3C[C@@]12CC[C@]3(O)CO [aphidicolin]
  cells extending branched complex neurite-like processes: 48%
MEM + 10% FBS, untreated cells 52%
  BrDU labeling (proliferation): 7.2%
